How the values were obtained:
Assay in all cases: relative viability (nuclei count vs DMSO), 5 days (fraction); higher = more cells survive
Carboplatin + OSI-027 = compound: C1CC(C1)(C(=O)O)C(=O)O.[NH2-].[NH2-].[Pt+2] [Carboplatin] + COc1cccc2cc(-c3nc([C@H]4CC[C@H](C(=O)O)CC4)n4ncnc(N)c34)[nH]c12 [OSI-027] (partner 0.5 µM)
Outline: (§1)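 Values are medians from duplicate plates. Each reflects relative viability, defined as the nuclei count of treated wells over that of vehicle wells. Lung cancer cell lines in 1536-well plates were pin-tool dosed one day after seeding with one drug alone or with a fixed anchor-drug dose plus five library-drug doses (not always all listed) in √10 steps, then fixed, stained and imaged at 4× after 5 days.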

Carboplatin + Vorinostat = compound: C1CC(C1)(C(=O)O)C(=O)O.[NH2-].[NH2-].[Pt+2] [Carboplatin] + O=C(CCCCCCC(=O)Nc1ccccc1)NO [Vorinostat] (partner 1 µM)
Outline: as §1

GSK126 + OSI-027 = compound: CC[C@H](C)N1C=C(C2=C(C=C(C=C21)C3=CN=C(C=C3)N4CCNCC4)C(=O)NCC5=C(C=C(NC5=O)C)C)C [GSK126] + COc1cccc2cc(-c3nc([C@H]4CC[C@H](C(=O)O)CC4)n4ncnc(N)c34)[nH]c12 [OSI-027] (partner 0.5 µM)
Outline: as §1

MLN4924 + Alpelisib = compound: NS(=O)(=O)OC[C@@H]1C[C@@H](n2ccc3c(N[C@H]4CCc5ccccc54)ncnc32)C[C@@H]1O [MLN4924] + Cc1nc(NC(=O)N2CCC[C@H]2C(N)=O)sc1-c1ccnc(C(C)(C)C(F)(F)F)c1 [Alpelisib] (partner 2 µM)
Outline: as §1

Row | Cell Line | relative viability (Carboplatin + OSI-027; first compound 0.08 µM) | relative viability (Carboplatin + OSI-027; first compound 0.253 µM) | relative viability (Carboplatin + OSI-027; first compound 0.8 µM) | relative viability (Carboplatin + OSI-027; first compound 2.53 µM) | relative viability (Carboplatin + OSI-027; first compound 8 µM) | relative viability (Carboplatin + Vorinostat; first compound 0.08 µM) | relative viability (Carboplatin + Vorinostat; first compound 0.253 µM) | relative viability (Carboplatin + Vorinostat; first compound 0.8 µM) | relative viability (Carboplatin + Vorinostat; first compound 2.53 µM) | relative viability (Carboplatin + Vorinostat; first compound 8 µM) | relative viability (GSK126 + OSI-027; first compound 0.08 µM) | relative viability (GSK126 + OSI-027; first compound 0.253 µM) | relative viability (GSK126 + OSI-027; first compound 0.8 µM) | relative viability (GSK126 + OSI-027; first compound 2.53 µM) | relative viability (GSK126 + OSI-027; first compound 8 µM) | relative viability (MLN4924 + Alpelisib; first compound 0.04 µM) | relative viability (MLN4924 + Alpelisib; first compound 0.1265 µM) | relative viability (MLN4924 + Alpelisib; first compound 0.4 µM) | relative viability (MLN4924 + Alpelisib; first compound 1.265 µM) | relative viability (MLN4924 + Alpelisib; first compound 4 µM)
1 | NCI-H1437 | 0.935 | 0.822 | 0.83 | 0.749 | 0.488 | 0.803 | 0.869 | 0.728 | 0.808 | 0.598 | 0.913 | 0.854 | 0.77 | 0.844 | 0.828 | 0.905 | 0.977 | 0.755 | 0.422 | 0.101
2 | H3255 | 0.591 | 0.513 | 0.529 | 0.519 | 0.488 | 0.777 | 0.815 | 0.776 | 0.72 | 0.572 | 0.573 | 0.568 | 0.578 | 0.666 | 0.583 | 0.694 | 0.548 | 0.265 | 0.175 | 0.242
3 | NCI-H1666 | 0.831 | 0.818 | 0.831 | 0.644 | 0.566 | 1.09 | 0.966 | 1.04 | 0.921 | 0.665 | 0.886 | 0.868 | 0.986 | 0.789 | 0.822 | 1.18 | 0.832 | 0.432 | 0.148 | 0.205
4 | NCI-H2228 | 0.685 | 0.63 | 0.597 | 0.64 | 0.349 | 0.748 | 0.0948 | 0.623 | 0.566 | 0.343 | 0.635 | 0.729 | 0.579 | 0.613 | 0.634 | – | 0.833 | 0.415 | 0.176 | 0.18
5 | HCC-78 | 0.433 | 0.368 | 0.341 | 0.379 | 0.375 | 0.472 | 0.403 | 0.386 | 0.378 | 0.431 | 0.359 | 0.379 | 0.384 | 0.373 | 0.396 | 0.429 | 0.253 | 0.536 | 0.149 | 0.139
6 | CAL-12T | 0.696 | 0.603 | 0.735 | 0.779 | 0.526 | 0.606 | 0.768 | 0.733 | 0.802 | 0.891 | 0.78 | 0.576 | 0.767 | 0.67 | 0.819 | 1.09 | 1.18 | 0.39 | 0.529 | 0.191
7 | SK-LU-1 | 0.444 | 0.387 | 0.339 | 0.292 | 0.213 | 0.923 | 0.657 | 0.861 | 0.664 | 0.459 | 0.435 | 0.37 | 0.401 | 0.416 | 0.387 | 1.1 | 0.572 | 0.281 | 0.145 | 0.194
8 | LU99A | 0.307 | 0.299 | 0.269 | 0.3 | 0.283 | 0.507 | 0.577 | 0.485 | 0.418 | 0.292 | 0.341 | 0.324 | 0.275 | 0.311 | 0.296 | 0.418 | 0.244 | 0.299 | 0.173 | 0.153
